ChEMBL document CHEMBL3774317, “Design and synthesis of novel tamoxifen analogues that avoid CYP2D6 metabolism” (Eur J Med Chem, 2016)

Experiments:
Format in all cases: functional
[1] = Cytotoxicity against human Caki1 cells assessed as cell growth at 10^-4 M after 48 hrs by SRB assay; conditions: CAKI-1, 48 h, read-out: Activity
[2] = Cytotoxicity against human SF295 cells assessed as cell growth at 10^-5 M after 48 hrs by SRB assay; conditions: SF-295, 48 h, read-out: Activity
[3] = Cytotoxicity against human NCI-ADR-RES cells assessed as cell growth at 10^-8 M after 48 hrs by SRB assay; conditions: read-out: Activity
[4] = Cytotoxicity against human BT549 cells assessed as cell growth at 10^-6 M after 48 hrs by SRB assay; conditions: BT-549, 48 h, read-out: Activity
NCI-H226 = test: Cytotoxicity against human NCI-H226 cells assessed as cell growth at 10^-4 M after 48 hrs by SRB assay; conditions: NCI-H226, 48 h, read-out: Activity
[5] = Cytotoxicity against human HCT15 cells assessed as cell growth at 10^-7 M after 48 hrs by SRB assay; conditions: HCT-15, 48 h, read-out: Activity
MCF7 [6] = test: Cytotoxicity against human MCF7 cells assessed as cell growth at 10^-5 M after 48 hrs by SRB assay; conditions: MCF7, 48 h, read-out: Activity
SN12C = test: Cytotoxicity against human SN12C cells assessed as cell growth at 10^-4 M after 48 hrs by SRB assay; conditions: read-out: Activity
CCRF-CEM [7] = test: Cytotoxicity against human CCRF-CEM cells assessed as cell growth at 10^-6 M after 48 hrs by SRB assay; conditions: read-out: Activity
MCF7 [8] = test: Cytotoxicity against human MCF7 cells assessed as cell growth at 10^-8 M after 48 hrs by SRB assay; conditions: MCF7, 48 h, read-out: Activity
NCI-H23 = test: Cytotoxicity against human NCI-H23 cells assessed as cell growth at 10^-8 M after 48 hrs by SRB assay; conditions: NCI-H23, 48 h, read-out: Activity
A498 = test: Cytotoxicity against human A498 cells assessed as cell growth at 10^-4 M after 48 hrs by SRB assay; conditions: A498, 48 h, read-out: Activity
[9] = Cytotoxicity against human PC3 cells assessed as cell growth at 10^-5 M after 48 hrs by SRB assay; conditions: PC-3, 48 h, read-out: Activity
[10] = Cytotoxicity against human OVCAR3 cells assessed as cell growth at 10^-7 M after 48 hrs by SRB assay; conditions: OVCAR-3, 48 h, read-out: Activity
[11] = Cytotoxicity against human SF268 cells assessed as cell growth at 10^-5 M after 48 hrs by SRB assay; conditions: SF-268, 48 h, read-out: Activity
K562 = test: Cytotoxicity against human K562 cells assessed as cell growth at 10^-8 M after 48 hrs by SRB assay; conditions: K562, 48 h, read-out: Activity
CCRF-CEM [12] = test: Cytotoxicity against human CCRF-CEM cells assessed as cell growth at 10^-7 M after 48 hrs by SRB assay; conditions: read-out: Activity
NCI-H522 = test: Cytotoxicity against human NCI-H522 cells assessed as cell growth at 10^-4 M after 48 hrs by SRB assay; conditions: NCI-H522, 48 h, read-out: Activity
[13] = Cytotoxicity against human HOP92 cells assessed as cell growth at 10^-4 M after 48 hrs by SRB assay; conditions: HOP-92, 48 h, read-out: Activity
T47D = test: Cytotoxicity against human T47D cells assessed as cell growth at 10^-8 M after 48 hrs by SRB assay; conditions: read-out: Activity
[14] = Cytotoxicity against human HCT15 cells assessed as cell growth at 10^-8 M after 48 hrs by SRB assay; conditions: HCT-15, 48 h, read-out: Activity
SK-MEL-2 [15] = test: Cytotoxicity against human SK-MEL-2 cells assessed as cell growth at 10^-6 M after 48 hrs by SRB assay; conditions: SK-MEL-2, 48 h, read-out: Activity
Malme-3M [16] = test: Cytotoxicity against human MALME-3M cells assessed as cell growth at 50 uM after 48 hrs by SRB assay; conditions: read-out: Activity
KM12 = test: Cytotoxicity against human KM12 cells assessed as cell growth at 50 uM after 48 hrs by SRB assay; conditions: KM12, 48 h, read-out: Activity
[17] = Cytotoxicity against human SNB19 cells assessed as cell growth at 50 uM after 48 hrs by SRB assay; conditions: SNB-19, 48 h, read-out: Activity
U-251 = test: Cytotoxicity against human U251 cells assessed as cell growth at 5 uM after 48 hrs by SRB assay; conditions: U-251, 48 h, read-out: Activity
[18] = Cytotoxicity against human OVCAR5 cells assessed as cell growth at 50 nM after 48 hrs by SRB assay; conditions: OVCAR-5, 48 h, read-out: Activity
MDA-MB-231 = test: Cytotoxicity against human MDA-MB-231 cells assessed as cell growth at 5 uM after 48 hrs by SRB assay; conditions: MDA-MB-231, 48 h, read-out: Activity
Malme-3M [19] = test: Cytotoxicity against human MALME-3M cells assessed as cell growth at 5 nM after 48 hrs by SRB assay; conditions: read-out: Activity
CCRF-CEM [20] = test: Cytotoxicity against human CCRF-CEM cells assessed as cell growth at 50 uM after 48 hrs by SRB assay; conditions: read-out: Activity
[21] = Cytotoxicity against human HCT116 cells assessed as cell growth at 50 uM after 48 hrs by SRB assay; conditions: HCT-116, 48 h, read-out: Activity
NCI-H460 = test: Cytotoxicity against human NCI-H460 cells assessed as cell growth at 5 uM after 48 hrs by SRB assay; conditions: NCI-H460, 48 h, read-out: Activity
[22] = Cytotoxicity against human SNB19 cells assessed as cell growth at 0.5 uM after 48 hrs by SRB assay; conditions: SNB-19, 48 h, read-out: Activity
[23] = Cytotoxicity against human NCI-ADR-RES cells assessed as cell growth at 50 uM after 48 hrs by SRB assay; conditions: read-out: Activity
A549 = test: Cytotoxicity against human A549 cells assessed as cell growth at 50 uM after 48 hrs by SRB assay; conditions: A549, 48 h, read-out: Activity
[24] = Cytotoxicity against human MOLT4 cells assessed as cell growth at 50 uM after 48 hrs by SRB assay; conditions: MOLT-4, 48 h, read-out: Activity
[25] = Cytotoxicity against human OVCAR8 cells assessed as cell growth at 50 uM after 48 hrs by SRB assay; conditions: OVCAR-8, 48 h, read-out: Activity
SK-MEL-2 [26] = test: Cytotoxicity against human SK-MEL-2 cells assessed as cell growth at 0.5 uM after 48 hrs by SRB assay; conditions: SK-MEL-2, 48 h, read-out: Activity
[27] = Cytotoxicity against human SF295 cells assessed as cell growth at 0.5 uM after 48 hrs by SRB assay; conditions: SF-295, 48 h, read-out: Activity
[28] = Cytotoxicity against human SF539 cells assessed as cell growth at 5 uM after 48 hrs by SRB assay; conditions: SF-539, 48 h, read-out: Activity
[29] = Cytotoxicity against human Hs 578T cells assessed as cell growth at 5 nM after 48 hrs by SRB assay; conditions: read-out: Activity

SMILES: C/C(=C(/c1ccc(O)cc1)c1ccc(OCCN2CCCC2)cc1)c1ccccc1
- growth at 100 µM [1]: -100%
- growth at 10 µM [2]: -57%
- growth at 0.01 µM [3]: 99%
- growth at 1 µM [4]: 92%
- growth at 100 µM (NCI-H226): -62%
- growth at 0.1 µM [5]: 91%
- growth at 10 µM (MCF7 [6]): -47%
- growth at 100 µM (SN12C): -69%
- growth at 1 µM (CCRF-CEM [7]): 102%
- growth at 0.01 µM (MCF7 [8]): 44%
- growth at 0.01 µM (NCI-H23): 92%
- growth at 100 µM (A498): -82%
- growth at 10 µM [9]: 19%
- growth at 0.1 µM [10]: 99%
- growth at 10 µM [11]: 37%
- growth at 0.01 µM (K562): 99%
- growth at 0.1 µM (CCRF-CEM [12]): 113%
- growth at 100 µM (NCI-H522): -82%
- growth at 100 µM [13]: -88%
- growth at 0.01 µM (T47D): 62%
- growth at 0.01 µM [14]: 92%
- growth at 1 µM (SK-MEL-2 [15]): 99%

SMILES: CCCCCCCCCC(=O)Oc1ccc(/C(=C(/C)c2ccccc2)c2ccc(OCCN3CCCC3)cc2)cc1
- growth at 50 µM (Malme-3M [16]): -82%
- growth at 50 µM (KM12): -86%
- growth at 50 µM [17]: -77%
- growth at 5 µM (U-251): 86%
- growth at 0.05 µM [18]: 94%
- growth at 5 µM (MDA-MB-231): 102%
- growth at 0.005 µM (Malme-3M [19]): 108%
- growth at 50 µM (CCRF-CEM [20]): -47%
- growth at 50 µM [21]: -87%
- growth at 5 µM (NCI-H460): 92%
- growth at 0.5 µM [22]: 87%
- growth at 50 µM [23]: -73%
- growth at 50 µM (A549): -82%
- growth at 50 µM [24]: -53%
- growth at 50 µM [25]: -58%
- growth at 0.5 µM (SK-MEL-2 [26]): 99%
- growth at 0.5 µM [27]: 79%
- growth at 5 µM [28]: 92%
- growth at 0.005 µM [29]: 92%
